Results: patent US20240366487A1, “ANTI-AGING COMPOSITIONS FOR SENSITIVE SKIN” (Baek Clinical Inc., priority 2023, published 2024)

Test system: skin of human subjects
Experiment: Human Repeat Insult Patch Testing (HRIPT)
Assay type: in vivo
Conditions: positive control, 71 subjects
Description: The study duration was 6 weeks and 71 male and female subjects, ranging in age from 18 to 65, completed the study. Subjects were requested to bathe or wash as usual before arrival at the facility Patches containing the test material were then affixed directly to the skin of the intrascapular regions of the back, to the right or left of the midline and subjects were dismissed with instructions not to wet or expose the test area to direct sunlight. Patches remained in place for 48 hours after the first application. Subjects were instructed not to remove the patches prior to their 48-hour scheduled visit, thereafter, subjects were instructed to remove patches 24 hours after application for the remainder of the study. […] Prior to each reapplication, the test sites were evaluated by trained laboratory personnel. Following a 10-14 day rest period a retest/challenge dose was applied once to a previously unexposed test site. Test sites were evaluated by trained laboratory personnel 48 and 96 hours after application. In the event of a reaction, the area of erythema and edema were measured. Edema is estimated by the evaluation of the skin with respect to the contour of the unaffected normal skin. Subjects were instructed to report any delayed reactions that might occur after the final reading.

## CCCCCCCCCCCCOS(=O)(=O)[O-].[Na+] [1.0% Sodium Lauryl Sulfate Solution, Sodium Lauryl Sulfate]
  subjects with a Grade 1 reaction: 3 subjects
  subjects with a Grade 2 reaction: 1 subject
